Each block holds one compound with its values, some of them ahead of it. Square brackets hold non-standard residues; d marks the D form. Peptide text beside a SMILES is read from it.
Legend:
[1] = Plasma stability (UPLC-MS); assay type: in vitro ADME, human; conditions: human EDTA plasma from four healthy volunteers, 37°C, gentle shaking, UPLC-MS (SIR); for remaining at 72 h, 0.2 mM: peak area vs time 0, read-out: Amount of detectable compound after incubation with human plasma
Procedure: To assess whether the β32_33 peptide, PMT, PMT-8a and PMT-8b peptide-mimetics are stable in blood, we set up a chromatographic assay able to evaluate compound concentration after incubation in human plasma.
Four different samples from healthy volunteers were used. Blood was drawn by venepuncture in vacutainer containing EDTA as an anticoagulant. Plasma was separated by centrifugation and immediately used for the experiments. Each compound was dissolved in 500 μL plasma at a final concentration of 0.2 mM and split into two aliquots, one of which was immediately analysed to assess the basal compound level (T0); the other was incubated at 37°C under gentle shaking, and the amount of each compound was measured at different time points (i.e., 1.5, 3, 6 and 72 h).
To perform chromatographic analyses, the samples were treated with 3 volumes of acetonitrile containing 1% formic acid and then extracted by using the Ostro™ pass-through sample preparation system to remove proteins and phospholipids. Samples were dried under vacuum, resuspended in 100 μL of 0.1% formic acid containing 5% acetonitrile, and then injected directly onto the chromatographic column.
Chromatographic analyses were performed on a Water Acquity H-Class UPLC system (Waters, Milford, MA, United States), including a quaternary solvent manager (QSM), a sample manager with a flow-through needle system (FTN), a photodiode array detector (PDA) and a single-quadruple mass detector with electrospray ionization source (ACQUITY QDa). Analyses were performed on a reverse phase C18 column (75 mm × 3.2 mm i. d., 2.5 μm particle size). The mobile phase was solvent A, 0.1% formic acid in water, and solvent B, 0.1% formic acid in acetonitrile. The flow rate was 0.5 mL/min, the column temperature was set at 25°C and the elution was performed by linearly increasing the concentration of solvent B up to 70% in 7 min. Mass spectrometric detection was performed in the positive electrospray ionization mode, using nitrogen as the nebulizer gas. Analyses were performed in the Total Ion Current (TIC) mode with a mass range of 100–1200 m/z. The capillary voltage was 0.8 kV, cone voltage 8 V, ion source temperature 120°C and probe temperature 600°C. Quantification was performed by Selected Ion Recording (SIR): at m/z = 917.88, corresponding to the [M+2H]^2+ ion obtained from either β32_33 peptide or PMT; at m/z = 961.42, corresponding to the [M + H] ^+ obtained from PMT-8a; and at m/z = 869.48, corresponding to the [M + H]^+ ion obtained from PMT-8b.

[2] = healthy animals; reached immediately, stable up to 24 h after injection; ref Peng et al., 2018; cited from earlier work
Text: PMT radiolabelling with ^64Cu allowed us to follow the in vivo distribution of the peptide in the body districts of healthy animals over time.

mutant cybrids = assay: Confocal fluorescence microscopy, co-localization with mitochondria (Mitotracker Red); assay type: cell-based, human; conditions: Cy5 constructs 0.25 µM in glucose medium, imaged after 24 h, Mitotracker Red; mean ± SEM of at least five images
Procedure: Previously established osteosarcoma-derived (143B.TK-) cybrid cell lines from patients, which bear either the m.3243A>G mutation in mt-tRNA^Leu(UUR) or the m.8344A>G mutation in mt-tRNA^Lys and controls ([Perli et al., 2014]; [Perli et al., 2016]; [Perli et al., 2020]) were used.
Constructs made of compounds listed in Table 1, comprising D-peptides linked to the Cy5 fluorophore via maleimide cross-linker, were administered to sub-confluent cybrid cell cultures at 0.25 µM in glucose medium. About 24 h after treatment with each construct, cells were incubated with 200 nM Mitotracker Red FM (LifeTechnologies Italia, Monza, Italy) for 30 min at 37°C.
Subsequently, cells were visualized by confocal microscopy. Images of 800 × 800 px (at 88 nm/px) were acquired at the Olympus iX83 FluoView1200 laser scanning confocal microscope using a 60 × NA1,35 oil objective (Olympus Italia SRL Milano, Italy), zoom 3×, 559 nm, and 635 nm lasers and filter setting for Mitotracker Red and Cy5. The fluorescence images were analysed with the ImageJ software ([Rasband, 2018]) to determine the Pearson’s correlation coefficient.
For a subset of experiments, we evaluated the mt localization of constructs up to 72 h after treatment. PMT and PMT fragments were administered to sub-confluent cybrids at a concentration of 0.25 µM in the glucose medium. At 24-, 48- and 72-h after treatment, cells were incubated with Mitotracker Red and visualized by confocal microscopy. After each confocal imaging section, a fresh glucose medium was added to the cells, which were maintained under standard conditions (a humidified atmosphere of 95% air and 5% CO2 at 37°C).

remaining at 72 h, 0.2 mM ([1]; 72 h): > 90%
SMILES: CC(C)C[C@@H](NC(=O)[C@@H](Cc1ccccc1)NC(=O)[C@@H](CO)NC(=O)[C@@H](CCCCN)NC(=O)[C@H](N)CCCCN)C(=O)N[C@H](CO)C(=O)N1CCC[C@@H]1C(=O)N[C@H](CCCNC(=N)N)C(N)=O [PMT-8a] (H-[dK][dK][dS][dF][dL][dS][dP][dR]-NH2)

remaining at 72 h, 0.2 mM ([1]; 72 h): > 85%
SMILES: CC[C@@H](C)[C@@H](NC(=O)[C@@H](CC(C)C)NC(=O)[C@@H](C)NC(=O)[C@H](NC(=O)[C@@H](CCCNC(=N)N)NC(=O)[C@H]1CCCN1C(=O)[C@@H](CO)NC(=O)[C@H](N)CC(C)C)[C@H](C)O)C(N)=O [PMT-8b] (H-[dL][dS][dP][dR][dT][dA][dL][dI]-NH2)

SMILES: [64Cu] [free ^64Cu]
Radioactivity concentration in different cortical regions [2]: 0.4–0.6 %ID/mL

metabolised at 1.5 h, 0.2 mM ([1]; 1.5 h, peak area vs time 0, read-out: Decrease of amount of compound after incubation with human plasma): 90%
Amount of detectable compound after incubation with human plasma ([1]; 72 h, 0.2 mM, peak area vs time 0): almost undetectable
SMILES: CC[C@H](C)[C@H](NC(=O)[C@H](CC(C)C)NC(=O)[C@H](C)NC(=O)[C@@H](NC(=O)[C@H](CCCNC(=N)N)NC(=O)[C@@H]1CCCN1C(=O)[C@H](CO)NC(=O)[C@H](CC(C)C)NC(=O)[C@H](Cc1ccccc1)NC(=O)[C@H](CO)NC(=O)[C@H](CCCCN)NC(=O)[C@@H](N)CCCCN)[C@@H](C)O)C(=O)N[C@@H](CC(N)=O)C(=O)N[C@@H](Cc1ccccc1)C(=O)N[C@@H](CC(C)C)C(=O)N[C@H](C(N)=O)C(C)C [β32_33 peptide]
Pearson's correlation coefficient (PCC), mt localization (mutant cybrids): 0.78 ± 0.06
